pIC50: −log10 of the molar value.
Columns and labels:
[1] = test system: H1573 cells (KRAS G12A); test: 3D Cell viability assay in H1573 cells (Biological Example 6); assay type: cell-based; details: Homo sapiens, NCI-H1573; H1573 (KRAS G12A) spheroids, 72 hours
How it was run: (§1)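 First, 1000 cells per well are seeded in complete medium with 10% FBS and left undisturbed 48 h to form spheroids. Next, compounds are added as a 9-point, three-fold series (0.25% DMSO) for 72 h at 37 °C. Finally, CellTiter-Glo 3D lysis and luminescence yield EC50 values.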

[2] = test system: HCT116 cells (KRAS G13D); test: Cell-based pERK HTRF assay in HCT116 cells (Biological Example 5); details: Homo sapiens, HCT-116
Protocol: (§2) Biological Example 5: Cell-based PERK HTRF assay in AsPC-1, SW1900, HPAC, Capan-2, RKN, H358, HCT116, KP-2, H1573, A549, MKN1, and HT1080 cells
(§3) The inhibition of ERK phosphorylation, as measured using the HTRF Advanced Phospho-ERK 1/2 (Thr202/Tyr204) Detection Assay kit (Perkin Elmer), was used to determine the effectiveness of test compounds in disrupting KRAS-driven protein/effector signaling in cells.
(§4) On day 1, cells were seeded into 96-well plates at 2.5×10^4 cells/well in 100 μL of complete growth media supplemented with 10% fetal bovine serum (FBS) and incubated at 37° C., in the presence of 5% CO2.
(§5) On day 2, cells were treated with compounds diluted in DMSO at 0.25% final DMSO concentration. Compounds were dosed in a 9-point concentration curve with three-fold dilution between concentrations. Cells were incubated in the presence of compound for two hours at 37° C. Following this treatment period, cells were harvested by aspirating the media, adding 40 μL of kit-supplied 1x lysis buffer per well, and shaking for 30 minutes at 250 rpm at room temperature.
(§6) Following cell lysis, samples were homogenized by pipetting up and down twenty times and 16 μL of cell lysate per well was transferred from the 96-well cell culture plate to two wells of a 384-well detection plate. A complete detection buffer was prepared by diluting D2 and Eu Cryptate antibodies 1:20 in kit-provided detection solution, 4 μL of complete detection buffer was then added to each well with lysate. Plates were incubated with gentle rocking for 24 hours at 4° C.
(§7) Following this incubation period, plates were centrifuged at 500×g for one minute and analyzed on a CLARIOstar plate reader. Data was imported into Microsoft Excel and the signal from the 665 nm channel was divided by the signal from the 620 nm channel. % pERK was calculated as: […]
(§8) Data was imported to the Prism software package (Graphpad) and EC50 values were calculated using the log (inhibitor) vs, response—variable slopc (Four parameters) model.

[3] = test system: H1573 cells (KRAS G12A); test: Cell-based pERK HTRF assay in H1573 cells (Biological Example 5); details: Homo sapiens, NCI-H1573
Protocol: as §2, §3, §4, §5, §6, §7, §8

[4] = test system: KP-2 cells (KRAS G12R); test: Cell-based pERK HTRF assay in KP-2 cells (Biological Example 5); details: KP-2 (KRAS G12R) cells
Protocol: as §2, §3, §4, §5, §6, §7, §8

[5] = test system: A549 cells (KRAS G12S); test: 3D Cell viability assay in A549 cells (Biological Example 6); assay type: cell-based; details: Homo sapiens; A549 (KRAS G12S) spheroids, 72 hours
How it was run: as §1

[6] = test system: KP-2 cells (KRAS G12R); test: 3D Cell viability assay in KP-2 cells (Biological Example 6); assay type: cell-based; details: KP-2 (KRAS G12R) spheroids, 72 hours
Protocol: Biological Example 6: 3D Cell viability assay in AsPC-1, SW1900, HPAC, Capan-2, RKN, H358, HCT116, KP-2, H1573, A549, MKN1, and HT1080 cells
The inhibition of cellular viability as a result of test compound treatment in a spheroid assay was measured using the CellTiter-Glow 3D Cell Viability Assay (Promega).
On Day 1, 1000 cells per well were seeded in 150 μL of complete growth media supplemented with 10% fetal bovine serum (FBS) and incubated at 37° C., in the presence of 5% CO2 in 96-well ultra-low attachment microplates (Corning) for 48 hours undisturbed to allow spheroids to form.
Following spheroid formation, cells were treated with compounds diluted in DMSO at 0.25% final DMSO concentration. Compounds were dosed in a 9-point concentration curve with three-fold dilution between concentrations. Cells were incubated in the presence of compound for 72 hours at 37° C., in the presence of 5% CO2.
Following this incubation period, the kit-provided CTG reagent was allowed to equilibrate for 30 minutes at room temperature, 150 μL of equilibrated CTG reagent was added to each well, and the plate was sealed before shaking at 250 rpm for 10 minutes at room temperature to lyse the cells, 150 μL of lysate per well was transferred to a 96-well plate and luminescence was read on a CLARIOstar plate reader.
Data was imported into the Prism software package (Graphpad) and EC50 values were calculated using the log (inhibitor) vs, response—variable slope (Four parameters) model.

[7] = test system: HPAC cells (KRAS G12D); test: Cell-based pERK HTRF assay in HPAC cells (Biological Example 5)
Protocol: as §2, §3, §4, §5, §6, §7, §8

[8] = test system: HCT116 cells (KRAS G13D); test: 3D Cell viability assay in HCT116 cells (Biological Example 6); assay type: cell-based; details: Homo sapiens, HCT-116; HCT116 (KRAS G13D) spheroids, 72 hours
How it was run: as §1

[9] = test system: HT1080 cells (NRAS); test: Cell-based pERK HTRF assay in HT1080 cells (Biological Example 5); details: Homo sapiens, HT-1080
Protocol: as §2, §3, §4, §5, §6, §7, §8

[10] = test system: HT1080 cells (NRAS); test: 3D Cell viability assay in HT1080 cells (Biological Example 6); assay type: cell-based; details: Homo sapiens, HT-1080; HT1080 (NRAS) spheroids, 72 hours
How it was run: as §1

[11] = test system: A549 cells (KRAS G12S); test: Cell-based pERK HTRF assay in A549 cells (Biological Example 5); details: Homo sapiens
Protocol: as §2, §3, §4, §5, §6, §7, §8

[12] = test system: AsPC-1 cells (KRAS G12D); test: Cell-based pERK HTRF assay in AsPC-1 cells (Biological Example 5); details: AsPC-1 (KRAS G12D) cells
Protocol: as §2, §3, §4, §5, §6, §7, §8

pIC50 [1]: ≥ 7.00 | pIC50 [2]: ≥ 7.00 | pIC50 [3]: ≥ 7.00 | pIC50 [4]: ≥ 7.00 | pIC50 [5]: ≥ 7.00 | pIC50 [7]: ≥ 7.00 | pIC50 [8]: 6.00 to 7.00 | pIC50 [9]: < 6.00 | pIC50 [10]: < 6.00 | pIC50 [11]: ≥ 7.00 | pIC50 [12]: ≥ 7.00
SMILES: CCN(c1nc(OC[C@@]23CCCN2C[C@H](F)C3)nc2c(F)c(-c3ccc(F)c4sc(N)c(C#N)c34)c(C(F)(F)F)cc12)[C@H]1CCN(C(=O)C(C)C)C1 [Compound 332]
pIC50 [6]: ≥ 7.00

From patent US20260042764A1, “COMPOSITIONS AND METHODS FOR INHIBITION OF KRAS” (TheRas, Inc., priority 2022, published 2026)
